The target in one test is T1, hCRHR2 (Homo sapiens, UniProt Q13324).
T1 sequence (Q13324 1-411): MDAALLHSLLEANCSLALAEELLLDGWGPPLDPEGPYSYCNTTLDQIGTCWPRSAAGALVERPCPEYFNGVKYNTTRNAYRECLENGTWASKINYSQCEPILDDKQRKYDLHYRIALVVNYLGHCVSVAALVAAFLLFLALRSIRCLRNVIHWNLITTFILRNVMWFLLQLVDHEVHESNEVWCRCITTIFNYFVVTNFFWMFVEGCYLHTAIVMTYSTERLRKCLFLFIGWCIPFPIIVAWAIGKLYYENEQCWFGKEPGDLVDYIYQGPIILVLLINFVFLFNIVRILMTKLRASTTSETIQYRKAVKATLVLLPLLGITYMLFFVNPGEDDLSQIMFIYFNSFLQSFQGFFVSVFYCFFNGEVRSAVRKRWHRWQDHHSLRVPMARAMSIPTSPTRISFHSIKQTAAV
The test is described as follows: HTRF cAMP assay, determination of hCRHR2 potency (peptide libraries 5 conc., purified peptides 11 conc.). As to conditions: for EC50: read-out: hCRHR2 EC50. Format: cell-based. Summed up:
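EC50 derived by variable-slope sigmoid regression of FRET-based cAMP data; cellular cAMP displaced d2-labelled tracer from cryptate anti-cAMP antibody. Stable human CRHR2 CHO-K1 suspension cells, revived from frozen stocks just before the run.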

The target in the next test is T2, hCRHR1 (Homo sapiens, UniProt P34998).
T2 sequence (P34998 24-415): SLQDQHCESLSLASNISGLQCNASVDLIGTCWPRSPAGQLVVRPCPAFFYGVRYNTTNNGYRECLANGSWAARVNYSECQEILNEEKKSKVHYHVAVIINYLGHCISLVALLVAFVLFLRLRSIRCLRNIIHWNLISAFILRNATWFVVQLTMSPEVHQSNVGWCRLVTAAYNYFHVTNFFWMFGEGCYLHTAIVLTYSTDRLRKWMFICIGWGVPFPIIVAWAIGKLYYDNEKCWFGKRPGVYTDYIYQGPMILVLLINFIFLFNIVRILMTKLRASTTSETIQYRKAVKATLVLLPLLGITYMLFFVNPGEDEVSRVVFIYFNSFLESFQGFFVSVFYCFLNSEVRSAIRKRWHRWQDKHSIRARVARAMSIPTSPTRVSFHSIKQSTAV
The test is described as follows: HTRF cAMP assay, determination of hCRHR1 potency (peptide libraries 5 conc., purified peptides 11 conc.). It is filed as cell-based. Summed up:
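Cellular cAMP was read by time-resolved FRET between d2-labelled cAMP and cryptate anti-cAMP antibody. The cells were freshly thawed suspension CHO-K1 cells stably expressing human CRHR1.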

A short description of test [1]: Effect on acute food intake in mice. It is filed as in vivo. As to conditions: single subcutaneous dose. Here is the method: Male NMRI mice were obtained from JanVier (JanVier Labs, France) at 5 weeks of age. The animals were group-housed 4 mice pr. cage under a 12/12 h dark-light cycle, light off at 1 PM. Room temperature was controlled to 22°C ± 1°C, with 60 % ± 20% humidity. Animals had ad libitum access to regular rodent chow (Altromin 1324, Brogaarden, Denmark) and tap water.
Animals were transferred 5-7 days before the start of the study to a real-time food intake monitoring system, HM-2 system (MBRose, Denmark) to allow acclimatization to experimental conditions. As the animals were uniquely identified with microchips, each individual animal was identified by its microchip upon entry and exit from the food channel. Randomization of the mice for each study group (n=7-8) was based on body weight measured the day before the start of the study. A vehicle-treated group was included in each experiment. Six hours before the start of the dark phase, animals were fasted. One hour before the dark phase, animals were dosed once subcutaneously with test peptide. Food intake was reported hourly for a period of 72 hours. The percentage of food intake reduction was normalized to average food intake from the vehicle group. Statistical significance was evaluated using One-way analysis of variance with Dunnett's multiple comparison test. P < 0.05 was considered statistically significant.
Selected compounds were tested according to the general procedure on acute food intake in mice to determine the effect of a single subcutaneous dose on food intake in mice over 3 days.

The mark [2] stands for this setting: purified peptides, CHO-K1 cells stably expressing hCRHR2, cAMP HTRF.
[3] abbreviates: purified peptides, CHO-K1 cells stably expressing hCRHR1, cAMP HTRF, read-out: hCRHR1 EC50.
The mark [4] stands for this setting: stable cell system, Table 10, read-out: Stable EC50 (nM) hCRHR 1.
[5] abbreviates: Table 5, purified peptides, read-out: hCRHR1 EC50.

The EC50 is the concentration that produces a half-maximal response.

SMILES strings stand for the structures. Where two headings read alike, the source gives them in different places. Marks after values point to notes of the source that are not given here. Starred links: 1 amine or outer side, 2 acyl side, 3 side chain; linkers in the order of their positions; H or OH if unused. Non-standard residues stand in square brackets, D forms with d. Residues, ends and D or L forms follow the SMILES beside them. Groups on a side chain read outwards from the residue. *: point of attachment. C20 diacid = O=C(O)CCCCCCCCCCCCCCCCCCC(=O)*; γGlu = O=C(O)[C@H](CCC(=O)[*:2])N[*:1]; NMeI = CC[C@H](C)[C@H](NC)C(=O)O; Nle = CCCC[C@H](N)C(=O)O; AEEA = NCCOCCOCC(=O)O; Aib = CC(C)(N)C(=O)O

For `CC[C@H](C)[C@H](N)C(=O)N[C@H](C(=O)N[C@@H](CC(C)C)C(=O)N[C@@H](CO)C(=O)N[C@@H](CC(C)C)C(=O)N[C@@H](CC(=O)O)C(=O)N[C@H](C(=O)N1CCC[C@H]1C(=O)N[C@H](C(=O)NCC(=O)N[C@@H](CC(C)C)C(=O)N[C@@H](CC(C)C)C(=O)N[C@@H](CCC(N)=O)C(=O)N[C@H](C(=O)N[C@@H](CC(C)C)C(=O)N[C@@H](CC(C)C)C(=O)N[C@@H](CCC(=O)O)C(=O)N[C@@H](CCC(N)=O)C(=O)N[C@@H](C)C(=O)N[C@@H](CCCNC(=N)N)C(=O)N[C@@H](C)C(=O)N[C@@H](CCCNC(=N)N)C(=O)N[C@@H](C)C(=O)N[C@@H](C)C(=O)N[C@@H](CCCNC(=N)N)C(=O)N[C@@H](CCC(=O)O)C(=O)N[C@@H](CCC(N)=O)C(=O)N[C@@H](C)C(=O)N[C@H](C(=O)N[C@@H](CCCCNC(=O)COCCOCCNC(=O)COCCOCCNC(=O)CC[C@H](NC(=O)CC[C@H](NC(=O)CCCCCCCCCCCCCCCCCCC(=O)O)C(=O)O)C(=O)O)C(=O)N[C@@H](CC(N)=O)C(=O)N[C@@H](C)C(=O)N[C@@H](CCC(=O)O)C(=O)N[C@H](C(=O)N[C@@H](CC(C)C)C(=O)N[C@@H](C)C(=O)N[C@@H](CCC(=O)O)C(=O)N[C@H](C(N)=O)C(C)C)[C@@H](C)CC)[C@@H](C)O)[C@@H](C)CC)[C@@H](C)CC)C(C)C)C(C)C` [SEQ ID NO: 4] (H-IVLSLDVPIGLLQILLEQARARAAREQATK([AEEA-AEEA-γGlu-γGlu-C20 diacid])NAEILAEV-NH2), the “Selectivity ratio (hCRHR1/ hCRHR2)” value at hCRHR2 (hCRHR1-EC50/hCRHR2-EC50) was more than 3846. In addition, the EC50 on hCRHR2 (setting [2]) was 1.3 nM; on hCRHR1 (setting [3]), more than 5000 nM. The “% FI compared to vehicle, 24 h post-dosing” value (from here on “% FI compared to vehicle”) was 63.41*** % in test [1] (30 nmol/kg), 19.33*** % in test [1] (100 nmol/kg) and 18.14*** % in test [1] (300 nmol/kg).

With `CC[C@H](C)[C@H](NC)C(=O)N[C@H](C(=O)N[C@@H](CC(C)C)C(=O)N[C@@H](CO)C(=O)N[C@@H](CC(C)C)C(=O)N[C@@H](CC(=O)O)C(=O)N[C@H](C(=O)N1CCC[C@H]1C(=O)N[C@H](C(=O)NCC(=O)N[C@@H](CC(C)C)C(=O)N[C@@H](CC(C)C)C(=O)N[C@@H](CCC(N)=O)C(=O)N[C@H](C(=O)N[C@@H](CC(C)C)C(=O)N[C@@H](CC(C)C)C(=O)N[C@@H](CCC(=O)O)C(=O)N[C@@H](CCC(N)=O)C(=O)N[C@@H](C)C(=O)N[C@@H](CCCNC(=N)N)C(=O)N[C@@H](C)C(=O)N[C@@H](CCCNC(=N)N)C(=O)N[C@@H](C)C(=O)N[C@@H](C)C(=O)N[C@@H](CCCNC(=N)N)C(=O)N[C@@H](CCC(=O)O)C(=O)N[C@@H](CCC(N)=O)C(=O)N[C@@H](C)C(=O)N[C@@H](CCCCNC(=O)COCCOCCNC(=O)COCCOCCNC(=O)CC[C@H](NC(=O)CC[C@H](NC(=O)CCCCCCCCCCCCCCCCCCC(=O)O)C(=O)O)C(=O)O)C(=O)N[C@H](C(=O)N[C@@H](CC(N)=O)C(=O)NC(C)(C)C(=O)N[C@@H](CCC(=O)O)C(=O)N[C@H](C(=O)N[C@@H](CC(C)C)C(=O)N[C@@H](C)C(=O)N[C@@H](CCC(=O)O)C(=O)N[C@H](C(N)=O)C(C)C)[C@@H](C)CC)[C@@H](C)O)[C@@H](C)CC)[C@@H](C)CC)C(C)C)C(C)C` [SEQ ID NO: 16] (H-[NMeI]VLSLDVPIGLLQILLEQARARAAREQAK([AEEA-AEEA-γGlu-γGlu-C20 diacid])TN[Aib]EILAEV-NH2), the “Selectivity ratio (hCRHR1/ hCRHR2)” value at hCRHR2 (hCRHR1-EC50/hCRHR2-EC50) is more than 1852. Further, the EC50 at hCRHR2 (setting [2]) is 2.7 nM; on hCRHR1 (setting [3]), more than 5000 nM; at hCRHR1 (setting [4]) it was more than 5000 nM. Also, the “% FI compared to vehicle” value in test [1] (30 nmol/kg) is recorded as 44.62*** %; in test [1] (100 nmol/kg) it was 18.21*** %; in test [1] (300 nmol/kg) it was 12.36*** %.

Turning to `CCCC[C@H](NC(=O)[C@@H](NC(=O)[C@H](CCC(=O)O)NC(=O)[C@H](C)NC(=O)[C@H](CC(N)=O)NC(=O)C(C)(C)NC(=O)[C@H](CCCCNC(=O)COCCOCCNC(=O)COCCOCCNC(=O)CC[C@H](NC(=O)CC[C@H](NC(=O)CCCCCCCCCCCCCCCCCCC(=O)O)C(=O)O)C(=O)O)NC(=O)[C@H](C)NC(=O)[C@H](CCC(N)=O)NC(=O)[C@H](CCC(=O)O)NC(=O)[C@H](CCCNC(=N)N)NC(=O)[C@H](C)NC(=O)[C@H](C)NC(=O)[C@H](CCCNC(=N)N)NC(=O)[C@H](C)NC(=O)[C@H](CCCNC(=N)N)NC(=O)[C@H](C)NC(=O)[C@H](CCC(N)=O)NC(=O)[C@H](CO)NC(=O)[C@H](CC(C)C)NC(=O)[C@H](CC(C)C)NC(=O)[C@@H](NC(=O)[C@H](CCC(N)=O)NC(=O)[C@H](CC(C)C)NC(=O)[C@H](CC(C)C)NC(=O)CNC(=O)[C@@H](NC(=O)[C@@H]1CCCN1C(=O)[C@@H](NC(=O)[C@H](CC(=O)O)NC(=O)[C@H](CC(C)C)NC(=O)[C@H](CO)NC(=O)[C@H](CC(C)C)NC(=O)[C@@H](NC(=O)[C@@H]1CCCN1)C(C)C)C(C)C)[C@@H](C)CC)[C@@H](C)CC)[C@@H](C)CC)C(=O)N[C@@H](C)C(=O)N[C@@H](CCC(=O)O)C(=O)N[C@H](C(N)=O)C(C)C` [SEQ ID NO: 238] (H-PVLSLDVPIGLLQILLSQARARAAREQAK([AEEA-AEEA-γGlu-γGlu-C20 diacid])[Aib]NAEI[Nle]AEV-NH2), the “Selectivity ratio (hCRHR1/ hCRHR2)” value on hCRHR2 (Table 5) was more than 6329. Also, the 50% effective concentration (EC50) at hCRHR2 (Table 5, purified peptides) is 0.79 nM; at hCRHR1 (setting [5]), more than 5000 nM; on hCRHR1 (setting [4]), more than 5000 nM. Also, the “% FI compared to vehicle” value in test [1] (30 nmol/kg) is recorded as 29.73*** %; in test [1] (100 nmol/kg) it was 12.92*** %; in test [1] (300 nmol/kg) it was 7.94*** %.

`CCCC[C@H](NC(=O)[C@@H](NC(=O)[C@H](CCC(=O)O)NC(=O)[C@H](C)NC(=O)[C@H](CC(N)=O)NC(=O)C(C)(C)NC(=O)[C@H](CCCCNC(=O)COCCOCCNC(=O)COCCOCCNC(=O)CC[C@H](NC(=O)CC[C@H](NC(=O)CCCCCCCCCCCCCCCCCCC(=O)O)C(=O)O)C(=O)O)NC(=O)[C@H](C)NC(=O)[C@H](CCC(N)=O)NC(=O)[C@H](CCC(=O)O)NC(=O)[C@H](CCCNC(=N)N)NC(=O)[C@H](C)NC(=O)[C@H](C)NC(=O)[C@H](CCCNC(=N)N)NC(=O)[C@H](C)NC(=O)[C@H](CCCNC(=N)N)NC(=O)[C@H](C)NC(=O)[C@H](CCC(N)=O)NC(=O)[C@H](CO)NC(=O)[C@H](CC(C)C)NC(=O)[C@H](CC(C)C)NC(=O)[C@@H](NC(=O)[C@H](CCC(N)=O)NC(=O)[C@H](CC(C)C)NC(=O)[C@H](CC(C)C)NC(=O)CNC(=O)[C@@H](NC(=O)[C@@H]1CCCN1C(=O)[C@@H](NC(=O)[C@H](CC(=O)O)NC(=O)[C@H](CC(C)C)NC(=O)[C@H](CO)NC(=O)[C@H](CC(C)C)NC(=O)[C@@H](NC(=O)[C@@H](N)[C@@H](C)CC)C(C)C)C(C)C)[C@@H](C)CC)[C@@H](C)CC)[C@@H](C)CC)C(=O)N[C@@H](C)C(=O)N[C@@H](CCC(=O)O)C(=O)N[C@H](C(N)=O)C(C)C` [compound 237] (H-IVLSLDVPIGLLQILLSQARARAAREQAK([AEEA-AEEA-γGlu-γGlu-C20 diacid])[Aib]NAEI[Nle]AEV-NH2): the “Selectivity ratio (hCRHR1/ hCRHR2)” value on hCRHR2 (Table 5) is on record as more than 6494. Further, the EC50 on hCRHR2 (Table 5, purified peptides) is 0.77 nM; at hCRHR1 (setting [5]) it was more than 5000 nM. For the same molecule, the entries for the “% FI compared to vehicle” value in test [1] (30 nmol/kg), in test [1] (100 nmol/kg) and in test [1] (300 nmol/kg) were 51.49*** %, 16.66*** % and 13.2*** %, respectively.

The record behind these values is patent publication EP4810052A2, “HCRHR2 SELECTIVE POLYPEPTIDES” (Gubra A/S, priority 2023, dated 2026).
